Source: patent US8987249B2, “Substituted 2-Aza-bicyclo[2.2.1]heptane-3-carboxylic acid (benzyl-cyano-methyl)-amides inhibitors of Cathepsin C” (Boehringer Ingelheim International GmbH, priority 2013, dated 2015)

Biological target: recombinant human DPPI (Cathepsin C) (Homo sapiens (Human), UniProt P53634)
Assay: Inhibition of human DPPI (Cathepsin C)
Assay type: biochemical
Conditions: substrate Gly-Arg-AMC
Description: Inhibition of Human DPPI (Cathepsin C)
Bovine serum albumin (BSA; Prod. No. A3059) and Dithiothreitol (DTT; Prod. No D0632) were from Sigma. […] The DPP1 inhibitor Gly-Phe-DMK was purchased from MP Biomedicals (Prod.-No. 03DK00625). The recombinant human DPPI was purchased from Prozymex. All other materials were of highest grade commercially available.
The following buffers were used: MES buffer: 25 mM MES, 50 mM NaCl, 5 mM DTT, adjusted to pH 6.0, containing 0.1% BSA; TAGZyme Buffer: 20 mM NaH2PO4, 150 mM NaCl adjusted to pH 6.0 with HCl
Then, 5 μL of substrate in MES buffer (final concentration 50 μM) were added. The microtiter plates were then incubated at room temperature for 30 min. Then, the reaction was stopped by adding 10 μL of Gly-Phe-DMK in MES-buffer (final concentration 1 μM).
The analysis of the data was performed by calculating the percentage of fluorescence in the presence of test compound in comparison to the fluorescence of the vehicle control after subtracting the background fluorescence using the following formula: (RFU(sample)−RFU(background))*100/(RFU(control)−RFU(background))
Data from these calculations were used to generate IC50 values for inhibition of DPPI, respectively.

Sequence of recombinant human DPPI (Cathepsin C) (P53634 231-394): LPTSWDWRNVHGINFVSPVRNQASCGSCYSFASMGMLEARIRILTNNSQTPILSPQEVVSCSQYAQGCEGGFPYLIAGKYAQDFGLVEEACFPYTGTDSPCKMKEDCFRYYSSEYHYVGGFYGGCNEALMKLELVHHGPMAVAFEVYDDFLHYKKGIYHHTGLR
Sequence of recombinant human DPPI (Cathepsin C) (P53634 395-463): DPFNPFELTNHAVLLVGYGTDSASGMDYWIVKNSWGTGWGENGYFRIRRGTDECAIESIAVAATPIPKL
Sequence of recombinant human DPPI (Cathepsin C) (P53634 25-134): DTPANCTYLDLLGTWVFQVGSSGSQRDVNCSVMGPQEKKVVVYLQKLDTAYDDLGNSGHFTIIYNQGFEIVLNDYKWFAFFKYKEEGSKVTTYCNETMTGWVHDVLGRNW

| IC50 | Compound |
| --- | --- |
| 0.0494 µM | N#C[C@H](Cc1ccc(-c2ccc(C(=O)N3CCCCC3)cc2)cc1F)NC(=O)[C@H]1N[C@@H]2CC[C@H]1C2 [Example 210] |
| 0.0389 µM | CN(C)C(=O)c1cnn(-c2ccc(C[C@@H](C#N)NC(=O)[C@H]3N[C@@H]4CC[C@H]3C4)c(F)c2)c1 [Example 286] |
| 0.0052 µM | CCOc1nc(-c2ccc(C[C@@H](C#N)NC(=O)[C@H]3N[C@@H]4CC[C@H]3C4)c(F)c2)cs1 [Example 172] |
| 0.295 µM | N#CC(Cc1ccc2oc3ccccc3c2c1)NC(=O)[C@H]1N[C@@H]2CC[C@H]1C2 (stereo partly drawn) [Example 212] |
| 0.0074 µM | N#C[C@H](Cc1ccc(-c2ccc(S(=O)(=O)N3CCCCC3)cc2)cc1F)NC(=O)[C@H]1N[C@@H]2CC[C@H]1C2 [Example 177] |
| 0.0245 µM | N#C[C@H](Cc1ccc(N2CCN(C3CCOCC3)CC2)cc1F)NC(=O)[C@H]1N[C@@H]2CC[C@H]1C2 [Example 336] |
| 0.0012 µM | CN1CCN(S(=O)(=O)c2cccc(-c3ccc(C[C@@H](C#N)NC(=O)[C@H]4N[C@@H]5CC[C@H]4C5)c(F)c3)c2)CC1 [Example 224] |
| 0.033 µM | CCOc1cc(-c2ccc(C[C@@H](C#N)NC(=O)[C@H]3N[C@@H]4CC[C@H]3C4)c(F)c2)cc(S(C)(=O)=O)c1 [Example 275] |
| 0.0597 µM | Cn1ncc2cc(-c3ccc(C[C@@H](C#N)NC(=O)[C@H]4N[C@H]5C[C@@H]4[C@@H]4C[C@@H]45)c(F)c3)ccc21 [Example 137] |
| 0.0289 µM | CCc1cc(-c2ccc(C[C@@H](C#N)NC(=O)[C@H]3N[C@@H]4CC[C@H]3C4)c(F)c2)nn1CC(C)C [Example 273] |
| 0.0018 µM | CN1CCCN(S(=O)(=O)c2ccc(-c3ccc(C[C@@H](C#N)NC(=O)[C@H]4N[C@@H]5CC[C@H]4C5)c(F)c3)cc2)CC1 [Example 340] |
| 0.275 µM | Cc1cnn(C)c1-c1ccc(C[C@@H](C#N)NC(=O)[C@H]2N[C@@H]3CC[C@H]2C3)c(F)c1 [Example 126] |
| 0.0158 µM | COC(=O)c1cc(C)c(-c2ccc(C[C@@H](C#N)NC(=O)[C@H]3N[C@@H]4CC[C@H]3C4)c(F)c2)s1 [Example 198] |
| 2.39 µM | N#CC(Cc1cccc2[nH]c(=O)c3ccccc3c12)NC(=O)[C@H]1N[C@@H]2CC[C@H]1C2 (stereo partly drawn) [Example 128, (1S,2S,4R)—N-[1-cyano-2-(6-oxo-5H-phenanthridin-1-yl)ethyl]-3-azabicyclo[2.2.1]heptane-2-carboxamide] |
| 0.0627 µM | C[S+]([O-])c1cc(=O)n(-c2ccc(C[C@@H](C#N)NC(=O)[C@H]3N[C@@H]4CC[C@H]3C4)c(F)c2)cc1F (stereo partly drawn) [Example 265] |
| 0.0424 µM | N#CC(Cc1ccc2c(cnc3ccccc32)c1)NC(=O)[C@H]1N[C@@H]2CC[C@H]1C2 (stereo partly drawn) [Example 316] |
| 0.0086 µM | CN1Cc2ccc(-c3ccc(C[C@@H](C#N)NC(=O)[C@H]4N[C@@H]5CC[C@H]4C5)c(F)c3)cc2C1 [Example 1, (1S,2S,4R)—N-[(1S)-1-cyano-2-[2-fluoro-4-(2-methylisoindolin-5-yl)phenyl]ethyl]-3-azabicyclo[2.2.1]heptane-2-carboxamide] |
| 0.187 µM | N#CC(Cc1ccc2c(c1)[nH]c(=O)c1ccccc12)NC(=O)[C@H]1N[C@@H]2CC[C@H]1C2 (stereo partly drawn) [Example 123, (1S,2S,4R)—N-[1-cyano-2-(6-oxo-5H-phenanthridin-3-yl)ethyl]-3-azabicyclo[2.2.1]heptane-2-carboxamide] |
| 0.187 µM | CC(C)OCc1cn(-c2ccc(C[C@@H](C#N)NC(=O)[C@H]3N[C@@H]4CC[C@H]3C4)c(F)c2)nn1 [Example 124] |
| 0.0047 µM | N#Cc1cc2c(cc1C(F)(F)F)[nH]c(=O)c1cc(CC(C#N)NC(=O)[C@H]3N[C@@H]4CC[C@H]3C4)ccc12 (stereo partly drawn) [Example 302] |
| 0.0027 µM | N#C[C@H](Cc1ccc(-c2csc(C(=O)N3CCCC3)c2)cc1F)NC(=O)[C@H]1N[C@@H]2CC[C@H]1C2 [Example 165] |
| 0.0147 µM | CC1(C)CCN(c2ccc(C[C@@H](C#N)NC(=O)[C@H]3N[C@@H]4CC[C@H]3C4)c(F)c2)CC1 [Example 195] |

| IC50 | Compound |
| --- | --- |
| 0.0048 µM | N#C[C@H](Cc1ccc(-c2cnn(S(=O)(=O)c3ccccc3)c2)cc1F)NC(=O)[C@H]1N[C@@H]2CC[C@H]1C2 [Example 243] |
| 0.0037 µM | N#C[C@H](Cc1ccc(-c2cnn3cccnc23)cc1F)NC(=O)[C@H]1N[C@@H]2CC[C@H]1C2 [Example 168] |
| 0.0042 µM | CN(C)C(=O)c1cc(-c2ccc(C[C@@H](C#N)NC(=O)[C@H]3N[C@@H]4CC[C@H]3C4)c(F)c2)cs1 [Example 170] |
| 0.0282 µM | N#C[C@H](Cc1ccc(C2CCN(C3CCOC3)CC2)cc1F)NC(=O)[C@H]1N[C@@H]2CC[C@H]1C2 (stereo partly drawn) [Example 337] |
| 0.882 µM | N#CC(Cc1cccc2[nH]c(=O)c3cc(F)ccc3c12)NC(=O)[C@H]1N[C@@H]2CC[C@H]1C2 (stereo partly drawn) [Example 215] |
| 0.86 µM | N#CC(Cc1ccc2cn[nH]c2c1)NC(=O)[C@H]1N[C@@H]2CC[C@H]1C2 (stereo partly drawn) [Example 127] |
| 0.182 µM | CN1C(=O)Cc2ccc(-c3ccc(CC(C#N)NC(=O)[C@H]4N[C@@H]5CC[C@H]4C5)c(OCc4ccccc4)c3)cc21 (stereo partly drawn) [Example 122] |
| 0.0008 µM | CN1CCN(C(=O)c2cc(-c3ccc(C[C@@H](C#N)NC(=O)[C@H]4N[C@@H]5CC[C@H]4C5)c(F)c3)cs2)CC1 [Example 225] |
| 0.0021 µM | Cn1cc(-c2ccc(C[C@@H](C#N)NC(=O)[C@H]3N[C@@H]4CC[C@H]3C4)c(F)c2)cn1 [Example 163] |
| 0.0611 µM | CN(C)C(=O)c1ccc(-c2ccc(C[C@@H](C#N)NC(=O)[C@H]3N[C@@H]4CC[C@H]3C4)c(F)c2)cc1 [Example 211] |
| 0.0142 µM | COCC(=O)n1cc(-c2ccc(C[C@@H](C#N)NC(=O)[C@H]3N[C@@H]4CC[C@H]3C4)c(F)c2)cn1 [Example 87] |
| 0.0098 µM | N#C[C@H](Cc1ccc(N2CCN(C3CC3)CC2)cc1F)NC(=O)[C@H]1N[C@@H]2CC[C@H]1C2 [Example 187] |
| 0.011 µM | COc1ccc2[nH]c(=O)c3cc(CC(C#N)NC(=O)[C@H]4N[C@@H]5CC[C@H]4C5)ccc3c2c1 (stereo partly drawn) [Example 312] |
| 0.0263 µM | Cn1c(=O)c2cc(CC(C#N)NC(=O)[C@H]3N[C@@H]4CC[C@H]3C4)ccc2c2ccccc21 (stereo partly drawn) [Example 206] |
| 0.0206 µM | N#C[C@H](Cc1ccc(OCc2ccccc2)cc1F)NC(=O)[C@H]1N[C@@H]2CC[C@H]1C2 [Example 290] |
| 0.0055 µM | N#C[C@H](Cc1ccc(-c2cnc(C3CC3)s2)cc1F)NC(=O)[C@H]1N[C@@H]2CC[C@H]1C2 [Example 173] |
| 0.286 µM | Cn1cc2ccc(-c3ccc(C[C@@H](C#N)NC(=O)[C@H]4N[C@H]5C[C@@H]4[C@@H]4C[C@@H]45)c(F)c3)cc2n1 [Example 135] |
| 0.006 µM | N#CC(Cc1ccc2c(c1)c(=O)[nH]c1ccc(Cl)cc12)NC(=O)[C@H]1N[C@@H]2CC[C@H]1C2 (stereo partly drawn) [Example 304] |
| 0.0065 µM | CN1CC2CCN(c3ccc(C[C@@H](C#N)NC(=O)[C@H]4N[C@@H]5CC[C@H]4C5)c(F)c3)C2C1 (stereo partly drawn) [Example 353] |
| 0.0075 µM | CCOC(=O)c1ccc(-c2ccc(C[C@@H](C#N)NC(=O)[C@H]3N[C@@H]4CC[C@H]3C4)c(F)c2)s1 [Example 179] |
| 0.0212 µM | CC(C)N1CCC(c2ccc(C[C@@H](C#N)NC(=O)[C@H]3N[C@@H]4CC[C@H]3C4)c(F)c2)CC1 [Example 280] |
| 0.815 µM | CS(=O)(=O)c1cc(-c2ccc(C[C@@H](C#N)NC(=O)[C@H]3N[C@H]4CC[C@@H]3C4)c(F)c2)ccc1C#N [Example 214] |

| Compound | IC50 |
| --- | --- |
| N#C[C@H](Cc1cc(-c2cccc(O)n2)ccc1F)NC(=O)[C@H]1N[C@@H]2CC[C@H]1C2 [Example 317] | 0.052 µM |
